# Measured values from PubChem BioAssay (NCI).
#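 96-well plates; 48 h exposure; 5 concentrations. Endpoints by linear interpolation between flanking doses. Not reached: highest tested concentration assigned. TGI denotes the concentration required for complete inhibition of growth.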
# Experiments:
# Test in all cases: growth of human tumour cells (NCI), 48 h
# NCI-H226 lung = tested on: NCI-H226 lung
# HOP-92 NSCLC = tested on: HOP-92 NSCLC
# EKVX NSCLC = tested on: EKVX NSCLC
# TK-10 renal = tested on: TK-10 renal
# SF-268 CNS = tested on: SF-268 CNS
# MOLT-4 leukemia = tested on: MOLT-4 leukemia
# ACHN renal = tested on: ACHN renal
# CCRF-CEM leukemia = tested on: CCRF-CEM leukemia
# UACC-257 melanoma = tested on: UACC-257 melanoma
# M14 melanoma = tested on: M14 melanoma
# A498 renal = tested on: A498 renal
# DMS 114 small cell lung = tested on: DMS 114 small cell lung
# NCI-H522 lung = tested on: NCI-H522 lung
# IGROV1 ovarian = tested on: IGROV1 ovarian
# SK-MEL-2 melanoma = tested on: SK-MEL-2 melanoma
# K-562 leukemia = tested on: K-562 leukemia
# KM12 colon = tested on: KM12 colon
# SK-MEL-28 melanoma = tested on: SK-MEL-28 melanoma
# RXF 393 renal = tested on: RXF 393 renal
# HCT-15 colon = tested on: HCT-15 colon
# RPMI-8226 leukemia = tested on: RPMI-8226 leukemia
# HT29 colon = tested on: HT29 colon
# A549 NSCLC = tested on: A549 NSCLC
# DLD-1 colon = tested on: DLD-1 colon
# NCI-H23 lung = tested on: NCI-H23 lung
# SK-OV-3 ovarian = tested on: SK-OV-3 ovarian
# UACC-62 melanoma = tested on: UACC-62 melanoma
# LXFL 529 NSCLC = tested on: LXFL 529 NSCLC
# CAKI-1 renal = tested on: CAKI-1 renal
# OVCAR-4 ovarian = tested on: OVCAR-4 ovarian
# HOP-62 NSCLC = tested on: HOP-62 NSCLC
# HCC-2998 colon = tested on: HCC-2998 colon
# U251 CNS = tested on: U251 CNS
# XF 498 CNS = tested on: XF 498 CNS
# SNB-75 CNS = tested on: SNB-75 CNS
# SF-539 CNS = tested on: SF-539 CNS
# OVCAR-5 ovarian = tested on: OVCAR-5 ovarian
# OVCAR-8 ovarian = tested on: OVCAR-8 ovarian
# SNB-78 CNS = tested on: SNB-78 CNS
# LOX IMVI melanoma = tested on: LOX IMVI melanoma
# SF-295 CNS = tested on: SF-295 CNS
# UO-31 renal = tested on: UO-31 renal
# SN12C renal = tested on: SN12C renal
# SNB-19 CNS = tested on: SNB-19 CNS
# KM20L2 colon = tested on: KM20L2 colon
# DMS 273 small cell lung = tested on: DMS 273 small cell lung
# HCT-116 colon = tested on: HCT-116 colon
# M19-MEL melanoma = tested on: M19-MEL melanoma
# NCI-H460 lung = tested on: NCI-H460 lung
# SR leukemia = tested on: SR leukemia
# COLO 205 colon = tested on: COLO 205 colon
# HL-60(TB) leukemia = tested on: HL-60(TB) leukemia
# SW-620 colon = tested on: SW-620 colon
# SK-MEL-5 melanoma = tested on: SK-MEL-5 melanoma
smiles,measurement,setting,value
N#Cc1ccccc1NC(=O)C(=O)C(C(=O)c1ccccc1F)C1OC(=O)c2ccccc21 (centres undefined),TGI,NCI-H226 lung,64.4 µM
same,TGI,HOP-92 NSCLC,> 100 µM
same,TGI,EKVX NSCLC,> 100 µM
same,TGI,TK-10 renal,> 100 µM
same,TGI,SF-268 CNS,> 100 µM
same,TGI,MOLT-4 leukemia,> 100 µM
same,TGI,ACHN renal,> 100 µM
same,TGI,CCRF-CEM leukemia,37.9 µM
same,TGI,UACC-257 melanoma,> 100 µM
same,TGI,M14 melanoma,> 100 µM
same,TGI,A498 renal,> 100 µM
same,TGI,DMS 114 small cell lung,> 100 µM
same,TGI,NCI-H522 lung,75.1 µM
same,TGI,IGROV1 ovarian,> 100 µM
same,TGI,SK-MEL-2 melanoma,68.8 µM
same,TGI,K-562 leukemia,> 100 µM
same,TGI,KM12 colon,> 100 µM
same,TGI,SK-MEL-28 melanoma,> 100 µM
same,TGI,RXF 393 renal,87.6 µM
same,TGI,HCT-15 colon,> 100 µM
same,TGI,RPMI-8226 leukemia,76.7 µM
same,TGI,HT29 colon,> 100 µM
same,TGI,A549 NSCLC,> 100 µM
same,TGI,DLD-1 colon,> 100 µM
same,TGI,NCI-H23 lung,> 100 µM
same,TGI,SK-OV-3 ovarian,> 100 µM
same,TGI,UACC-62 melanoma,> 100 µM
same,TGI,LXFL 529 NSCLC,> 100 µM
same,TGI,CAKI-1 renal,> 100 µM
same,TGI,OVCAR-4 ovarian,> 100 µM
same,TGI,HOP-62 NSCLC,> 100 µM
same,TGI,HCC-2998 colon,53.4 µM
same,TGI,U251 CNS,40.8 µM
same,TGI,XF 498 CNS,> 100 µM
same,TGI,SNB-75 CNS,> 100 µM
same,TGI,SF-539 CNS,82.9 µM
same,TGI,OVCAR-5 ovarian,> 100 µM
same,TGI,OVCAR-8 ovarian,> 100 µM
same,TGI,SNB-78 CNS,90.2 µM
same,TGI,LOX IMVI melanoma,> 100 µM
same,TGI,SF-295 CNS,> 100 µM
same,TGI,UO-31 renal,> 100 µM
same,TGI,SN12C renal,> 100 µM
same,TGI,SNB-19 CNS,> 100 µM
same,TGI,KM20L2 colon,> 100 µM
same,TGI,DMS 273 small cell lung,> 100 µM
same,TGI,HCT-116 colon,> 100 µM
same,TGI,M19-MEL melanoma,> 100 µM
same,TGI,NCI-H460 lung,> 100 µM
same,TGI,SR leukemia,57 µM
same,TGI,COLO 205 colon,> 100 µM
same,TGI,HL-60(TB) leukemia,54.6 µM
same,TGI,SW-620 colon,> 100 µM
same,TGI,SK-MEL-5 melanoma,> 100 µM
